{"source": "patent US20240165216A1", "about": "“NOVEL R[…] OF MYC[…] AND USE OF SAME” (priority 2021, published 2024)", "key": {"MIF": {"tested_on": "MIF", "assay": "MC38 model, co-administration with cisplatin: anti-MIF antibody titer and serum cytokines", "assay_type": "in vivo, mouse", "conditions": "versus control group; FIG. 33", "description": "Thus, it was considered that the production of anti-MIF antibody increased, and it was expected that the production of serum cytokines, which is a measure of the increase in immune activity in the body, would also be increased."}, "[1]": {"tested_on": "immune cells secreting IFN-γ and TNF-α", "assay": "MC38 model, co-administration with cisplatin: flow cytometry of cancer tissue", "assay_type": "in vivo, mouse", "conditions": "versus control group; FIG. 34c"}}, "data": [{"smiles": "N.N.[Cl][Pt][Cl]", "note": "[cisplatin]", "values": [{"measurement": "serum cytokine (IFN-γ and TNF-α) levels", "setting": "MIF", "value": "significantly increased"}, {"measurement": "TCRγδ T cells secreting IFN-γ in cancer tissue", "setting": "[1]", "value": "increased"}]}]}
